This note sets out measurements from ChEMBL document CHEMBL1201862, “PubChem BioAssay data set” (2004).

Test systems include LOX IMVI; UO-31; HOP-92; KM12; SR; NCI/ADR-RES; RXF 393; SK-OV-3; Hs-578T; MCF7; RPMI-8226; SK-MEL-2; OVCAR-4; HCT-15; OVCAR-8; UACC-62; SK-MEL-5; CAKI-1; OVCAR-3; HL-60.
Assay in all cases: inhibition of tumour cell growth, NCI panel, 48 h

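Protocol summary: plate cells (96-well), add compound at 5 concentrations, incubate 48 h, interpolate endpoints linearly. At the GI50, growth is halved.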 Active and inactive are the calls of the source. Cut-off read from the data, not from the text of the source: active = GI50 up to about 1.1 µM and inactive = higher.

Turning to `Nc1nc(Cl)cc(NCCO)n1`, the GI50 in the test on LOX IMVI, in the test on UO-31, with HOP-92, with KM12, in the test on SR and in the test on NCI/ADR-RES was > 100 µM (inactive) in each case. In addition, the GI50 in the test with RXF 393, in the test with SK-OV-3, in the test on Hs-578T, in the test with MCF7, in the test on RPMI-8226 and in the test with SK-MEL-2 was > 100 µM (inactive) each time. Further, the GI50 in the test on OVCAR-4 is > 100 µM (inactive); in the test with HCT-15, over 100 µM; with OVCAR-8, > 100 µM (inactive); in the test with UACC-62 it was > 100 µM (inactive); with SK-MEL-5, > 100 µM (inactive); in the test on CAKI-1, > 100 µM (inactive). For the same compound, the GI50 in the test on OVCAR-3 was > 100 µM (inactive).

On to `c1ccc(C(=NCCC2CNc3ccccc32)c2ccccc2)cc1` (centres undefined), for which the GI50 with UO-31, in the test with HOP-92, in the test with KM12, in the test on SR, with NCI/ADR-RES and in the test with RXF 393 was > 100 µM (inactive) throughout. In addition, the GI50 in the test with SK-OV-3, in the test on Hs-578T, in the test on MCF7, with RPMI-8226, in the test with SK-MEL-2 and with OVCAR-4 was > 100 µM (inactive) throughout. The GI50 is over 100 µM in the test with HCT-15; > 100 µM (inactive) with OVCAR-8; > 100 µM (inactive) in the test with UACC-62; > 100 µM (inactive) with SK-MEL-5; > 100 µM (inactive) with CAKI-1; > 100 µM (inactive) with OVCAR-3.

Consider `CN(C)CC1CCCCCCCCCC(CN(C)C)C1=O` (centres undefined), for which the GI50 is 15.1 µM (inactive) in the test on HL-60; > 38.7 µM (inactive) with UO-31; 20.4 µM (inactive) in the test on HOP-92; > 21.4 µM (inactive) in the test on KM12; 17.6 µM (inactive) in the test on SR; 6.43 µM (inactive) in the test with NCI/ADR-RES. Further, the GI50 in the test with RXF 393 was 8.77 µM (inactive); in the test with SK-OV-3, > 28.8 µM (inactive); in the test with Hs-578T, 8.18 µM (inactive); in the test with MCF7 it was 5.07 µM (inactive); with RPMI-8226, > 22 µM (inactive); in the test with SK-MEL-2, > 42.9 µM (inactive). Also, the GI50 in the test on HCT-15 is over 22.3 µM; with OVCAR-8 it was > 32.3 µM (inactive); in the test on UACC-62, 22 µM (inactive); with SK-MEL-5, 17.3 µM (inactive); in the test with CAKI-1, > 35.4 µM (inactive); in the test with OVCAR-3 it was > 20.3 µM (inactive).

`C/C(=N/NC(=S)Nc1ccccc1C)c1ccccn1`: the GI50 in the test on LOX IMVI was < 0.0149 µM (active); in the test with HL-60 it was 0.0143 µM (active); in the test with UO-31 it was 0.43 µM (active); in the test with HOP-92, 1.09 µM (active); in the test with KM12 it was 0.173 µM (active); in the test on SR, 0.0229 µM (active). Besides, the GI50 in the test with NCI/ADR-RES is 0.0322 µM (active); in the test on RXF 393 it was 0.682 µM (active); with SK-OV-3, 0.052 µM (active); in the test on Hs-578T it was 15.7 µM (inactive); in the test with MCF7, 0.0164 µM (active); in the test on RPMI-8226, < 0.0188 µM (active). The GI50 was 2.65 µM (inactive) in the test with SK-MEL-2; 0.279 µM (active) with OVCAR-4; 0.0228 µM with HCT-15; 0.107 µM (active) in the test on OVCAR-8; 0.232 µM (active) in the test with UACC-62; 0.0766 µM (active) in the test with SK-MEL-5. Moreover, the GI50 with OVCAR-3 was 0.0144 µM (active).

With `Cn1c(=O)oc2cc(C(=S)N3CCCCC3)ccc21`, the GI50 with LOX IMVI is > 100 µM (inactive); in the test with HL-60 it was > 100 µM (inactive); with KM12, > 100 µM (inactive); with SR, 68.4 µM (inactive); with NCI/ADR-RES it was > 100 µM (inactive); with RXF 393 it was > 100 µM (inactive). The GI50 in the test with SK-OV-3 is > 100 µM (inactive); in the test with Hs-578T, > 100 µM (inactive); with MCF7, > 100 µM (inactive); with RPMI-8226 it was > 100 µM (inactive); with SK-MEL-2, > 100 µM (inactive); in the test with HCT-15, over 100 µM. The GI50 in the test with OVCAR-8, in the test on UACC-62, with SK-MEL-5, in the test with CAKI-1 and in the test with OVCAR-3 was > 100 µM (inactive) each time.

With `CC(=O)Oc1c(C)c2c(c3ccccc13)OC(C)(C)C2`, the GI50 was 22.4 µM (inactive) with HL-60; 18.2 µM (inactive) with UO-31; 17.8 µM (inactive) in the test with HOP-92; 14.5 µM (inactive) with KM12; 17.7 µM (inactive) with SR; 21 µM (inactive) with NCI/ADR-RES. For the same compound, the GI50 in the test with RXF 393 is 20.7 µM (inactive); in the test on SK-OV-3, 30.5 µM (inactive); in the test on Hs-578T, 21 µM (inactive); in the test with MCF7, 17.5 µM (inactive); with RPMI-8226, 15.7 µM (inactive); in the test with SK-MEL-2, 18 µM (inactive). In addition, the GI50 was 16.1 µM (inactive) in the test with OVCAR-4; 17 µM in the test on HCT-15; 16.8 µM (inactive) with OVCAR-8; 16.3 µM (inactive) with UACC-62; 10.5 µM (inactive) in the test with SK-MEL-5; 24.2 µM (inactive) in the test on CAKI-1. For the same compound, the GI50 in the test on OVCAR-3 is 22.5 µM (inactive).

With `COc1cc(C(c2cc(OC)c(OC)c(OC)c2)N2C(=O)CCC2C(=O)O)cc(OC)c1OC` (centres undefined), the GI50 in the test with HL-60, in the test on UO-31, in the test with HOP-92, with KM12, in the test with SR and in the test on NCI/ADR-RES was > 100 µM (inactive) throughout. Besides, the GI50 in the test with RXF 393, with SK-OV-3, with Hs-578T, with MCF7, with RPMI-8226 and in the test on SK-MEL-2 was > 100 µM (inactive) each time. In addition, the GI50 with OVCAR-4 is > 100 µM (inactive); in the test with HCT-15, over 100 µM; in the test with OVCAR-8, > 100 µM (inactive); in the test with UACC-62, > 100 µM (inactive); in the test with SK-MEL-5 it was > 100 µM (inactive); in the test on CAKI-1, > 100 µM (inactive). Further, the GI50 in the test with OVCAR-3 was > 100 µM (inactive).

With `O=C1/C(=C\c2cccc(Oc3ccccc3)c2)S(=O)(=O)C(c2ccccc2)N1c1cc(Cl)ccc1Cl` (centres undefined), the GI50 in the test with LOX IMVI is 5.25 µM (inactive); with UO-31 it was 16.8 µM (inactive); with HOP-92 it was 16.9 µM (inactive); with KM12 it was 22.9 µM (inactive); in the test with SR, 6.31 µM (inactive); in the test with NCI/ADR-RES, 22.6 µM (inactive). In addition, the GI50 in the test with RXF 393 is 15.5 µM (inactive); in the test on SK-OV-3 it was 39.4 µM (inactive); in the test with Hs-578T it was 33.7 µM (inactive); in the test with MCF7, 4.13 µM (inactive); with RPMI-8226, 5.94 µM (inactive); in the test on SK-MEL-2 it was 28.2 µM (inactive). In addition, the GI50 in the test on OVCAR-4 is 23.1 µM (inactive); in the test on HCT-15 it was 21 µM; in the test on OVCAR-8, 5.06 µM (inactive); in the test with UACC-62, 15.2 µM (inactive); in the test on SK-MEL-5, 17 µM (inactive); with CAKI-1, 24.7 µM (inactive). Also, the GI50 in the test with OVCAR-3 is 20.1 µM (inactive).

For the compound `Cc1cn(C2CC(n3cc(Cn4cc(I)c(=O)[nH]c4=O)nn3)C(CO)O2)c(=O)[nH]c1=O` (centres undefined), the GI50 in the test on HL-60 is 0.0119 µM (active); in the test with UO-31, > 10 µM (inactive); with HOP-92, > 100 µM (inactive); with KM12, > 100 µM (inactive); with SR, < 0.01 µM (active); in the test with NCI/ADR-RES it was > 100 µM (inactive). Moreover, the GI50 with RXF 393, in the test with SK-OV-3, in the test with Hs-578T, in the test with MCF7, with RPMI-8226 and in the test with SK-MEL-2 was > 100 µM (inactive) throughout. The GI50 in the test on OVCAR-4 was > 100 µM (inactive); in the test on HCT-15, over 100 µM; in the test on OVCAR-8, > 100 µM (inactive); in the test with UACC-62, > 100 µM (inactive); in the test with SK-MEL-5, > 100 µM (inactive); in the test on CAKI-1 it was > 100 µM (inactive). Besides, in the test with OVCAR-3, the GI50 is > 100 µM (inactive).

With `COC1OC(CO)C(O)C(OC(=O)c2cc(O)c(O)c(O)c2)C1OC(=O)c1cc(O)c(O)c(O)c1` (centres undefined), the GI50 in the test on LOX IMVI is 23.3 µM (inactive); in the test on HL-60 it was 51.9 µM (inactive); in the test on UO-31 it was > 100 µM (inactive); in the test on KM12, > 100 µM (inactive); in the test with SR, 53.7 µM (inactive); in the test with NCI/ADR-RES, 60.4 µM (inactive). Further, the GI50 with RXF 393, in the test with SK-OV-3, in the test on Hs-578T, with MCF7, in the test on RPMI-8226 and in the test on SK-MEL-2 was > 100 µM (inactive) each time. Also, the GI50 in the test on OVCAR-4 was 23.1 µM (inactive); in the test on HCT-15, 66.2 µM; in the test with OVCAR-8 it was > 100 µM (inactive); in the test with UACC-62, > 10 µM (inactive); in the test on SK-MEL-5 it was 36.7 µM (inactive); with CAKI-1, 48.3 µM (inactive). Moreover, the GI50 in the test on OVCAR-3 is > 100 µM (inactive).

In the case of `O=C1CC2[C@@H](N3CCCC3)CCC(N1Cc1ccccc1)C2(O)O` (some centres undefined), the GI50 in the test on LOX IMVI, in the test on HL-60, with UO-31, in the test with HOP-92, in the test on KM12 and with SR was > 100 µM (inactive) each time. In addition, the GI50 with NCI/ADR-RES was > 100 µM (inactive); in the test on RXF 393, > 100 µM (inactive); in the test with SK-OV-3, > 100 µM (inactive); in the test with Hs-578T, > 100 µM (inactive); in the test with MCF7, > 100 µM (inactive); in the test with OVCAR-4 it was > 10 µM (inactive). For the same compound, the GI50 with HCT-15 is over 100 µM; in the test on OVCAR-8 it was > 100 µM (inactive); in the test with UACC-62 it was > 100 µM (inactive); in the test with SK-MEL-5 it was > 100 µM (inactive); in the test on CAKI-1, > 100 µM (inactive); with OVCAR-3 it was > 100 µM (inactive).
